Series [1] concerns the target T1, CCKBRs in the motor cortex (Mus musculus, UniProt P56481).
T1 construct: from tissue; host or cells: motor cortex of living C57BL/6 mice
T1 sequence (P56481 1-453): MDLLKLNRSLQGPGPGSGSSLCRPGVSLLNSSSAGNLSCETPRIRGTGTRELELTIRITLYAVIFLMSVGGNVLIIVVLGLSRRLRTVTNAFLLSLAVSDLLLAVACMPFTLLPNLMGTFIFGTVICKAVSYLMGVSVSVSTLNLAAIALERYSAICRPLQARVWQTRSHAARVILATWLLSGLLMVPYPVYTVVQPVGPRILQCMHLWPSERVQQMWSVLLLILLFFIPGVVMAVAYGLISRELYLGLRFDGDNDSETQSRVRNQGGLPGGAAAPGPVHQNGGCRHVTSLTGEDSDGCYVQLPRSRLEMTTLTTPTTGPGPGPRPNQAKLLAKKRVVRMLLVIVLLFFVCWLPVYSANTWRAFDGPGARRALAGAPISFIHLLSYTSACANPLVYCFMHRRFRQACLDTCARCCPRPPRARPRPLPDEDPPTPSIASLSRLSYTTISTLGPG
Description: Single pellet reaching task with CCKBR antagonist injected into the motor cortex. In kind it is in vivo, C57BL/6 mice. The following applies: for success rate: 1 μl 20 μM into motor cortex via cannula before training. As for the experimental part: (§1) The task has two periods, shaping and training. […] Only attempts by the dominant hand are counted.
C57BL/6 mice are implanted a cannula in the motor cortex (coordinates: AP, 1.4 mm, ML, −/+1.6 mm, DV, 0.2 mm) contralateral to the dominant hand of the mice, followed by three days of recovery. Mice are grouped into antagonist and vehicle groups. L365,260 (CCKBR antagonist) (1 μl, 20 μM, Cat #2767, Bio-Techne, https://www.bio-techne.com/, USA) or vehicle (0.1% DMSO dissolved in ACSF) is injected into the motor cortex through the cannula with the flow rate of 100 nl/min pumped by a syringe pump (Hamilton, http://hamiltoninstrument.com, USA), before the mice are placed into the chamber for the single pellet reaching task training.

The test system of series [2] is neurons in the motor cortex layer 2/3. Description: Calcium imaging of layer 2/3 of the motor cortex during single pellet reaching task training. The following applies: for activated population activity (peak activity minus baseline activity): C57BL/6 mice injected with L365,260 (0.4 mg/kg i.p.); for pairwise Hausdorff distance of trajectories / trial-to-trial population activity correlation (Pearson correlation coefficient): C57BL/6 mice injected with L365,260. It counts as in vivo, C57BL/6 mice. As for the experimental part:
as §1
The surface virus infusion process for the calcium imaging is performed as described previously with mild modification^5. A wide-tip glass pipette is prepared by a micropipette puller and then cut, polished, and flame-treated to make it even and smooth. Mice are […] injected with dexamethasone (0.2 mg/kg, s.c.) and carprofen (5 mg/kg, s.c.) to protect the brain from swelling and inflammation. Three hours later, mice are anesthetized with pentobarbital. The periosteum covered on the skull is removed, cleaned, and dried with 100% alcohol to prevent the skull and tissues from growing. A 3×3 mm^2 window above the motor cortex contralateral to the dominant hand is opened with a hand drill, and the bone debris is carefully removed with fine forceps. After that, the dura around the injection area is removed (open a dura hole of about 1 mm^2) to expose the pial tissue for virus infusion. The tip of the pipette tightly covered the brain surface by lowering 400-500 μm, and 0.6 μl virus is infused at the speed of 0.06 μl/min. A 3×3 cover glass (thickness, around 150 μm) is attached to the brain surface, and gentle pressure is applied to keep the cover glass at the level same as the skull. The edge of the cover glass is sealed with superglue. After the glue is totally hardened, the skin is stretched back and sutured.
2-3 weeks after cranial window implantation, the scalp over the skull is totally removed with surgical scissors. […] The cover glass surface is gently cleaned with Ringer's solution and lens paper, and the regrowth of periosteum on the skull is removed with fine forceps. Before baseplate implantation, the skull is dried with 100% alcohol, covered with Metbondglue, and a thick layer of dental acrylic except for the cover glass for observation.
The LED is turned on and the focal distance of the electrowetting lens is adjusted to 0 on the software. The position of the miniscope is adjusted until the brain tissue is observed in the data acquisition system. Dental acrylic is used to fix the baseplate to the acrylic cap covering the skull around the window. Once the dental acrylic has hardened, the miniscope is removed, and a metal cap is attached to the baseplate to protect the cover glass window.
After the implantation of the baseplate, a miniscope model is attached to the baseplate, and the mouse is placed in the chamber to acclimate to the weight of the miniscope for 20 minutes for 3 days. The LED laser and focal plate are slightly adjusted until the cells with fluorescent protruded from the background. A web camera is also connected to the data acquisition software and recorded the behavior movement of the animal simultaneously. An imaging field of about 1.0×1.0 mm^2 (resolution: 608×608 pixels) video at approximately 10 min long is recorded. To clearly figure out the role of CCK played in the neuronal plasticity of the motor cortex from CCK^−/− mice, C57BL/6 mice as well as C57BL/6 mice that intraperitoneal injection of CCKBR antagonist, L365,260 (0.4 mg/kg, Cat #2767, Bio-Techne, https://www.bio-techne.com, USA). Raw AVI videos are firstly spatially down-sample by two folds to reduce the size of the videos by Fiji (Image J, https://imagej.net/imagej-wiki-static/Fiji/Downloads, USA). Then a MATLAB algorithm, NoRMCorre, is applied for piecewise rigid motion correction before data analysis. The calcium signals are extracted with the MATLAB code of Constrained Nonnegative Matrix Factorization for microEndoscopic (CNMF-E) (code availability: https://github.com/zhoupc/CNMF_E) 6. The scaled fluorescent calcium signal overtime is extracted as C_raw. The raw data is then deconvolved. […] Timestamps from both the behavior videos and the calcium imaging videos are aligned to find out the time window when the mouse perform the reaching task. […]

Series [3] concerns motor cortex brain slices from the CCK^−/− mice. Description: Brain slice electrophysiology, fEPSP/LTP after HFS in motor cortex slices. In kind it is cell-based. The following applies: CCK4 500 nM, % of baseline. How it is done: The slice electrophysiology experiment is carried out following the methods reported previously^9. In the experiments, 6-8 weeks old C57BL/6 or CCK^−/− mice are anesthetized with isoflurane in a small chamber. The mouse head is cut, and the brain is rapidly removed and put into an oxygenated (95% O2-5% CO2) artificial cerebral spinal fluid (ACSF) cold bath containing 26 mM of NaHCO3, 2 mM of CaCl2), 1.25 mM of KH2PO4, 1.25 mM of MgSO4, 124 mM of NaCl, 3 mM of KCl and 10 mM of glucose, pH 7.35-7.45. The brain is sectioned from the middle line into two hemispheres. The portions with the brain areas of the motor cortex are trimmed and glued on the ice-cold stage of a vibrating tissue slicer (VT1000S, Leica, https://www.gmi-inc.com/product/leica-vt1000s-microtome, Germany). Coronal sections of slices containing the motor cortex (300 μm thick) are trimmed and gently transferred into an ACSF containing chamber, which is put in a water bath at 28° C. and oxygen blowing continuously. […]
After recovery, the motor cortex slice is covered by the recording electrodes. […] The electrophysiological data are extracted and analyzed with offline software, Mobius software. For quantification of the LTP data, the initial amplitudes of fEPSPs are normalized and expressed as percentage changes over the averaged baseline activity. […]

A further series has as its system CCK^−/− mice. Description: Rescue of motor learning ability of CCK^−/− mice with CCK4, single pellet reaching task. The following applies: for success rate: CCK4 0.45 mg/kg i.p. every day before training; for miss rate: CCK4 0.45 mg/kg i.p. In kind it is in vivo.
From the text: as §1
CCK4, a tetrapeptide derived from the peptide of CCK is selected as a potential drug to rescue the motor learning defect caused by the lack of CCK, because CCK4 remains the function to activate the CCK receptor but has a much smaller molecule than CCK8s or CCK58, making it transmit through the brain-blood barrier easily and smoothly^10-11. Therefore, intraperitoneal injection of the CCK4 is a simple and easily available way to rescue CCK lack caused motor learning defects. After shaping, CCK^−/− mice are injected intraperitoneally with CCK4 (0.45 mg/kg, Cat #ab141328, Abcam, https://securedrtest.abcam.com, UK) or vehicle before training every day.

Values joined by “and” are separate entries in the source; they are usually repeats but may differ in a detail not shown here. Identical values can stand only once.

For the compound `Cc1cccc(NC(=O)N[C@@H]2N=C(c3ccccc3)c3ccccc3N(C)C2=O)c1` [L365,260], in series [1] (Day 3), the success rate was found to be 16.80±2.83%. The compound further registered a success rate in series [1] (Day 4) of 18.16±3.12%. Also, the “success rate of pellet retrieval, change through the 6-day training period” value in series [1] (infused into motor cortex every day before training) is recorded as “not improved”. In addition, the “drop rate, change Day 1 vs. Day 5” value in series [1] (motor cortex injection) was “no significant changes”. Besides, in series [1] (motor cortex injection, Day 1), the miss rate is given as 27.34%±9.85%. Further, the “number of miss, change with learning” value in series [1] (motor cortex injection, Day 1 vs. Day 5) was “no significant decrease”. In addition, in series [1] (motor cortex injection, Day 5), the miss rate is 24.75%±2.34% and the no-grasp rate was 34.69%±4.12%. For the same compound, in series [2] (Day 1), the “activated population activity (peak activity minus baseline activity)” value turned out to be 0.0218±0.0094, the “pairwise Hausdorff distance of trajectories” value worked out at 0.7012±0.0594 cm and the “trial-to-trial population activity correlation (Pearson correlation coefficient)” value was found to be 0.12±0.07. For the same compound, in series [2] (Day 6), the “activated population activity (peak activity minus baseline activity)” value was 0.0354±0.0080, the “pairwise Hausdorff distance of trajectories” value turned out to be 0.6712±0.0659 cm and the “trial-to-trial population activity correlation (Pearson correlation coefficient)” value is recorded as 0.12±0.05.
As for Trp-Met-Asp-Phe-NH2 [CCK4], the entries for the “average normalized fEPSP amplitude” value in series [3] (after HFS (50-60 min)) and in series [3] (before HFS (−10-0 min)) were 118.89%±6.09% and 100.28%±0.47%, respectively. Also, the success rate in the series with CCK^−/− mice (Day 1) is 19.17%±3.03%; with CCK^−/− mice (Day 5, 0.45 mg/kg) it was 30.58%±4.18% and 30.51%±4.18%; with CCK^−/− mice (Day 6), 31.50%±4.43%. Moreover, the values for the miss rate in the series on CCK^−/− mice (Day 1) and in the series with CCK^−/− mice (Day 5) were 25.47%±4.03% and 13.13%±2.80, respectively. The brain-blood barrier passage entry with CCK^−/− mice (concluded from behavioural rescue after i.p. injection) is given as “could cross the brain-blood barrier”.

The record behind these values is patent US20250002555A1, “METHODS FOR THERAPY AND REHABILITATION OF MOVEMENT DISORDERS” (City University of Hong Kong, priority 2023, published 2025).
